Data on 104 compounds can be found in PubChem BioAssay AID1996.

Each structure is given as a SMILES string. Converted amounts (≈) assume the structure as drawn.

The conditions of the series: buffer; pH 7.4; 200.0 µM.
On to `CC(=O)Nc1ccc(Nc2ccccc2)cc1`, for which the kinetic solubility is greater than 33.9 µg/mL.
In the case of `Cc1ccc2nc(NC(=O)c3ccc(Br)o3)sc2c1` it was less than 0.4 µg/mL.
With `O=C(c1cccs1)N1CCN(c2ccccc2)CC1`, the solubility (kinetic) is greater than 40.9 µg/mL.
The value for `O=C(CN1CCc2ccccc2C1)NCC(=O)Nc1ccc(F)cc1` was 17.1 µg/mL (≈ 50.1 µM); that for `Cc1[nH]c2ccccc2c1/C=N/NC(=O)CNC(=O)c1ccco1` was greater than 48.7 µg/mL; that for `Cc1c(C=Nc2ccc(S(=O)(=O)CCO)cc2)c(O)[nH]c(=O)c1C#N` was greater than 54.2 µg/mL.
In the case of `CCOC(=O)CSc1nc(C)c2cccc(C)c2n1` it was 30.6 µg/mL (≈ 111 µM).
Compound `O=[N+]([O-])c1ccc(Cl)cc1CN1CCCCCC1` displayed a kinetic solubility of 16.7 µg/mL (≈ 62.1 µM).
In turn, `Cc1cc([N+](=O)[O-])ccc1NC(=O)c1csc(C)c1C` registered a solubility (kinetic) of 1.1 µg/mL (≈ 3.79 µM).
In the case of `Cc1n(Cc2ccccc2)c2cc([N+](=O)[O-])ccc2[n+]1Cc1ccccc1.[Cl-]` it was greater than 59.1 µg/mL; in that of `Cc1ccc2cccc(OCc3ccc(Br)cc3)c2n1`, 0.9 µg/mL (≈ 2.74 µM).
In the case of `COc1cccc(N2CCN(C(=O)c3ccc4nc[nH]c4c3)CC2)c1` it was 48.6 µg/mL (≈ 144 µM); in that of `Cc1ccc(NC(=O)CCC(=O)c2cccs2)cc1F`, 4.3 µg/mL (≈ 14.8 µM).
The value for `COc1cc2c(cc1OC)C(CCc1ccccc1)=NCC2` was 42.6 µg/mL (≈ 144 µM); that for `COC(=O)c1cn(CC(=O)Nc2ccc(F)cc2)c2ccccc12` was less than 0.3 µg/mL.
The compound `CCN(Cc1ccccc1)S(=O)(=O)c1ccc(OC)c2ncccc12` displayed a kinetic solubility greater than 53.5 µg/mL.
The value for `CCCNS(=O)(=O)c1cc2c3c(c1)C(C)C(=O)N3CCC2` (centres undefined) was 40.3 µg/mL (≈ 131 µM); that for `Cc1ccc(OCC(=O)N2CCCCCCC2)cc1` was greater than 39.2 µg/mL; that for `O=C(COC(=O)c1cccs1)NCc1cccs1` was 40 µg/mL (≈ 142 µM).
The value for `Cc1c(C(=O)c2ccc(F)cc2F)c2ccccn2c1CCC#N` was 44.4 µg/mL (≈ 137 µM).
In the case of `Cc1cc(OCC(=O)OCC(=O)Nc2cc(S(=O)(=O)N3CCOCC3)ccc2Cl)ccc1Cl` it was 16.2 µg/mL (≈ 31.3 µM); in that of `CC1CC(OC(=O)c2ccccc2)(c2ccccc2)C(C)CN1C` (centres undefined), greater than 48.5 µg/mL.
`O=C(OCC(=O)N1CCc2ccccc21)c1nc(Cl)ccc1Cl` returned a kinetic solubility of 23.3 µg/mL (≈ 66.3 µM).
In the case of `CCOC(=O)c1ccc(N)cc1` it was greater than 24.8 µg/mL; in that of `O=C(c1cc(-c2ccccc2)on1)N1CCCCCC1`, 39.1 µg/mL (≈ 145 µM); in that of `CCOc1ccccc1NC(=O)CCCc1ccc(OC)c(C)c1`, 8.2 µg/mL (≈ 25 µM).
`Cc1ccccc1Nc1c([N+](=O)[O-])cncc1[N+](=O)[O-]`: the kinetic solubility worked out at 37.1 µg/mL (≈ 135 µM). This solubility kinetic is about 4.5-fold higher than that of the compound before.
In the case of `O=C(CCCN1CCC(O)(c2ccc(Cl)cc2)CC1)c1ccc(F)cc1` it was 23.5 µg/mL (≈ 62.5 µM); in that of `CCc1ccccc1NC(=S)NCCSc1ccc(Cl)cc1`, 1.8 µg/mL (≈ 5.13 µM).
In the case of `Cn1c(=O)n(C)c2cc(NC(=O)c3ccc(F)cc3)ccc21` it was 15.5 µg/mL (≈ 51.8 µM); in that of `CCN(CC)c1cc(C)c(C#N)c2nc3ccccc3n12`, 2 µg/mL (≈ 7.18 µM); in that of `CCc1ccccc1NC(=O)C1CCCC1`, 29.7 µg/mL (≈ 137 µM).
The value for `Cc1ccccc1N=C1NC(=O)/C(=C/c2cccnc2)S1` was 38.1 µg/mL (≈ 129 µM).
The compound `O=C(NCCN1CCCCC1)c1ccc(/C=N/O)nc1` came in with a solubility (kinetic) of 40.7 µg/mL (≈ 147 µM). This solubility kinetic and that of the compound before are within 1.5-fold of each other.
The value for `COC(=O)/C=C1/SC(=NC(=O)c2ccc(F)cc2)NC1=O` was greater than 46.2 µg/mL; that for `c1ccc(CN2CCN(Cc3ccc4ccccc4c3)CC2)cc1` was 23.4 µg/mL (≈ 73.9 µM); that for `CCOc1ccc(CCNC(=O)c2cnc(C)cn2)cc1OCC` was greater than 49.4 µg/mL.
In the case of `COc1cc(NC(=O)COC(=O)CC2CC3CCC2C3)cc(OC)c1` (centres undefined) it was 14.6 µg/mL (≈ 42 µM).
In the case of `Cc1cccc(NC(=O)Nc2ccc([N+](=O)[O-])cc2)n1` it was less than 0.1 µg/mL; in that of `Cc1ccc2c(c1)C1(C)C(C(C)(C)N2C=O)C1(Cl)Cl` (centres undefined), 39.3 µg/mL (≈ 132 µM); in that of `O=C(COC(=O)COc1ccc(Cl)cc1)NCCCc1ccccc1`, 26.1 µg/mL (≈ 72.1 µM).
In turn, `C=CCNc1cc(=O)n(Cc2ccccc2)c(=O)[nH]1` gave a solubility (kinetic) of 29.7 µg/mL (≈ 115 µM).
In the case of `O=C(Cc1ccccc1)Nc1ccc(NC(=O)c2ccccc2)nc1` it was 5.2 µg/mL (≈ 15.7 µM).
`CC(C)(Oc1ccc(Cl)cc1)C(=O)N1CCN(C(=O)c2ccco2)CC1` had a kinetic solubility greater than 56.5 µg/mL.
`Cc1nn2c(-c3ccncc3)ccnc2c1Cl` gave a solubility (kinetic) greater than 36.7 µg/mL.
`CCO.C[C@H]1c2cccc(O)c2C(O)=C2C(=O)[C@]3(O)C(O)=C(C(N)=O)C(=O)[C@@H](N(C)C)[C@@H]3[C@@H](O)[C@@H]21.Cl.O` had a kinetic solubility greater than 76.9 µg/mL.
For `Cn1c(=O)c2[nH]cnc2n(C)c1=O`, the kinetic solubility was greater than 27 µg/mL.
`CC(C)N1C(=O)CCC1C(=O)N1CCN(c2ccc(F)cc2)CC1` (centres undefined) had a kinetic solubility greater than 50 µg/mL.
In the case of `Cc1ccc(S(=O)(=O)Nc2ccccc2N2CCOCC2)cc1` it was 0.8 µg/mL (≈ 2.41 µM); in that of `CCCNC(=O)COC(=O)c1ccc(N2CCCC2)c([N+](=O)[O-])c1`, 15.9 µg/mL (≈ 47.4 µM); in that of `CCN(CC)P(=O)(Oc1ccccc1)Oc1ccccc1`, 34.2 µg/mL (≈ 112 µM).
The value for `CC(C)C[C@H](NC(=O)Nc1ccc2c(c1)OCCO2)C(=O)O` was 41.1 µg/mL (≈ 133 µM); that for `CC(=O)Nc1cc[n+](C(C)C(=O)c2ccccc2)cc1.[Cl-]` (centres undefined) was 34 µg/mL.
The compound `COc1ccccc1C(C)NCC(=O)Nc1c(F)cccc1F` (centres undefined) registered a solubility (kinetic) greater than 48.1 µg/mL.
The value for `O=C(Cc1cccc(C(F)(F)F)c1)NCc1cccnc1` was greater than 44.1 µg/mL; that for `O=C(/C=C/c1ccccc1)NCCCNC(=O)/C=C/c1ccccc1` was 5 µg/mL (≈ 15 µM).
In the case of `Nc1cccc2c(=O)c3ccccc3[nH]c12` it was 5.6 µg/mL (≈ 26.6 µM).
The value for `Cl.c1ccc(SCCCCN2CCOCC2)cc1` was 38.2 µg/mL.
`CC(C)=C1SC(N2CCN(c3ccc(C)c(Cl)c3)CC2)=NC1=O` came in with a solubility (kinetic) of 1.9 µg/mL (≈ 5.43 µM). This solubility kinetic is about 20-fold lower than that of the compound before.
The value for `Cc1ccccc1NC(=O)c1ccco1` was greater than 30.2 µg/mL.
The value for `O=C(Nc1ccc(NC(=O)c2ccccc2Cl)cc1)c1cccnc1` was 3 µg/mL (≈ 8.53 µM); that for `CSc1cccc(N2CC(C(=O)N3CCN(S(=O)(=O)c4ccccc4Cl)CC3)CC2=O)c1` (centres undefined) was 23.2 µg/mL (≈ 47 µM); that for `C#CCOc1ccc(/C=C2/C(=O)ON=C2C)cc1Br` was 42.7 µg/mL (≈ 133 µM).
In turn, `O=C(CSc1ccccc1F)NC(=O)c1ccc(Cl)cc1` came in with a solubility (kinetic) of 8.5 µg/mL (≈ 26.3 µM). Compared with the last compound, the solubility kinetic is about 5-fold lower.
`Cc1nc(N2CCCCC2)sc1C=O`: the kinetic solubility is greater than 31.5 µg/mL.
The value for `Cl.O=C(Nc1cccc(C(F)(F)F)c1)c1cccnc1NCCO` was greater than 54.3 µg/mL; that for `CCCCc1ccc(S(=O)(=O)NC2CCS(=O)(=O)C2)cc1` (centres undefined) was 47.9 µg/mL (≈ 145 µM).
In the case of `Cc1ccc(OCc2cc(C(=O)NC3CCOC3)no2)cc1C` (centres undefined) it was 33.1 µg/mL (≈ 105 µM); in that of `COc1ccc(N2C(=O)CSC2c2ccccc2F)c(OC)c1` (centres undefined), 45.9 µg/mL (≈ 138 µM); in that of `O=C(c1ccccc1)N(Cc1ccccc1)Cc1ccccc1`, 0.8 µg/mL (≈ 2.65 µM).
The value for `CCc1nc2cccnc2n1-c1ccc(CC(=O)O)cc1` was greater than 42.2 µg/mL; that for `COc1ccc2nc(COC(=O)c3cccs3)c(C(C)=O)[n+]([O-])c2c1` was 1.6 µg/mL (≈ 4.46 µM).
For the compound `CCc1nc2cccnc2n1-c1ccc(CC(=O)NC(C)CC)cc1` (centres undefined), the kinetic solubility was greater than 50.5 µg/mL.
The value for `Cc1ccc2c(c1)c1ncn(Cc3ccc(F)cc3)c(=O)c1n2C` was 0.3 µg/mL (≈ 0.934 µM).
In the case of `O=C(Nc1ccc(Cl)c([N+](=O)[O-])c1)c1ccco1` it was 10.6 µg/mL (≈ 39.8 µM); in that of `COc1ccc(C(=O)CCNc2ccc(F)cc2)cc1`, less than 0.6 µg/mL.
Compound `COc1ccc(Cl)cc1NC(=O)Nc1ccccc1SC` yielded a solubility (kinetic) of less than 0.3 µg/mL.
The value for `CC1(C)CC(=O)C(CC(=O)N2CCC(Cc3ccccc3)CC2)C(=O)C1` was greater than 53.3 µg/mL; that for `CSc1nc(-c2ccccc2F)c(C#N)c(=O)n1C` was 20.7 µg/mL (≈ 75.2 µM).
In the case of `O=C(Nc1cccc([N+](=O)[O-])c1)Nc1cnccn1` it was 1.2 µg/mL (≈ 4.63 µM).
The value for `Cc1cccc(C)c1Nc1nnc(SCC(=O)NCCCN2CCCC2=O)s1` was greater than 62.9 µg/mL; that for `CC(C)OC(=O)CSc1nc2c(cc1C#N)CCCCC2` was less than 0.3 µg/mL; that for `CC(=O)c1ccc(N2CCN(C(=O)c3ccc4[nH]c(C)c(C)c4c3)CC2)cc1` was 1.6 µg/mL (≈ 4.26 µM).
The compound `CCC(C)c1ccc(NC(=S)NCc2ccccn2)cc1` (centres undefined) showed a kinetic solubility of 38.5 µg/mL (≈ 129 µM).
`C=CCNc1nc(-c2ccc3c(c2)OCCO3)cs1` came in with a kinetic solubility of 16.3 µg/mL (≈ 59.4 µM).
The value for `O=C1/C(=C/c2ccccn2)SC(=S)N1c1ccc(O)cc1` was 0.5 µg/mL (≈ 1.59 µM); that for `O=C(Nc1ccncc1)c1ccc(Cl)cc1` was greater than 34.9 µg/mL; that for `Cc1c(O)ccc(C(=O)CN2CCN(c3ccccc3)CC2)c1O` was 12 µg/mL (≈ 36.8 µM).
The value for `CC(C)Oc1ccc(CNC(=O)Oc2ccccc2)cc1` was 25.5 µg/mL (≈ 89.4 µM); that for `C=CCNC(=O)c1ccc(-c2nc3ccccc3nc2-c2ccccc2)cc1` was 11.7 µg/mL (≈ 32 µM).
With `O=C(Cc1ccc(Cl)cc1)Nc1ccc(Br)cn1`, the solubility (kinetic) amounted to 1.4 µg/mL (≈ 4.3 µM).
In the case of `Clc1ccccc1CSc1nncn1-c1cccnc1` it was greater than 45.4 µg/mL; in that of `CCc1ccccc1NC(=O)Nc1ccsc1C(=O)OC`, 16.2 µg/mL (≈ 53.2 µM); in that of `COc1ccc(NC(=O)c2ccc(S(=O)(=O)N3CCOCC3)o2)cc1`, 10.7 µg/mL (≈ 29.2 µM).
The value for `COC(=O)c1cc(CNC(=O)CC(C)c2ccccc2)ccc1OC` (centres undefined) was greater than 51.2 µg/mL; that for `Cc1ccc(N/C=C/C(=O)c2ccccc2)cc1Br` was less than 0.7 µg/mL; that for `COc1cccc(OCC(=O)NC2CCS(=O)(=O)C2)c1` (centres undefined) was greater than 44.9 µg/mL.
The value for `CC1CCC(NC(=O)c2ccc3c(c2)OCO3)CC1` (centres undefined) was 10.4 µg/mL (≈ 39.8 µM); that for `O=C(COC(=O)c1c(Cl)cccc1Cl)NCc1cccs1` was greater than 51.6 µg/mL.
Turning to `COc1ccccc1OCC(O)CNCc1ccc2c(c1)OCO2` (centres undefined), the solubility (kinetic) came to 47.4 µg/mL (≈ 143 µM).
The value for `O=C(CSc1cccc[n+]1[O-])NCC1CCCCC1` was greater than 42.1 µg/mL; that for `Cc1nn(-c2ccccn2)c(N)c1N=O` was greater than 30.5 µg/mL; that for `O=C(Cn1ncc(Cl)c(Cl)c1=O)NC1CCCCC1` was greater than 45.6 µg/mL.
Regarding `O=C(Nc1ncccc1O)c1ccc2ccccc2c1`, the solubility (kinetic) was greater than 39.6 µg/mL.
